Source: ChEMBL document CHEMBL1156717, “Synthesis and biological evaluation of pyrazoline analogues with beta-amino acyl group as dipeptidyl peptidase IV inhibitors” (Eur J Med Chem, 2008)

Biological target: CYP3A4 (Homo sapiens, UniProt P08684)
Experiment: Inhibition of CYP3A4 at 10 uM by fluorimetry assay in presence of NADP; values are per cent of control

Sequence of CYP3A4 (P08684 whole entry): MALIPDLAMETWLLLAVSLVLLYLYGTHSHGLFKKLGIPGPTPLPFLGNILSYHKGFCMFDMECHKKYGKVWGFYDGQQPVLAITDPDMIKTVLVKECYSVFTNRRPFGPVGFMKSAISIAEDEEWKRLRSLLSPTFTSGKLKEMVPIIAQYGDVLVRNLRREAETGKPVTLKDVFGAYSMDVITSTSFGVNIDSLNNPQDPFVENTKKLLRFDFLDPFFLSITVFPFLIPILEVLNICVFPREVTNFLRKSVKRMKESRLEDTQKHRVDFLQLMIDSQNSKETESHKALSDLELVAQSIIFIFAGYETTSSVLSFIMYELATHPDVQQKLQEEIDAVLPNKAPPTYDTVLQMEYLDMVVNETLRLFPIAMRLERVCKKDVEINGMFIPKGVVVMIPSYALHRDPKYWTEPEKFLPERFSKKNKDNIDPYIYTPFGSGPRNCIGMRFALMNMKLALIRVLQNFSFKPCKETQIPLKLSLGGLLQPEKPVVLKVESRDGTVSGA

Row | SMILES | residual activity at 10 µM [%]
1 | N[C@@H](CC(=O)N1N=CCC1C(=O)NCc1ccccc1)Cc1cc(F)c(F)cc1F (stereo not given in full) | 18.8
2 | N[C@@H](CC(=O)N1N=CCC1C(=O)NCc1ccc(C(=O)O)cc1)Cc1cc(F)c(F)cc1F (stereo not given in full) | 62
3 | CCOC(=O)COc1ccc(NC(=O)C2CC=NN2C(=O)C[C@H](N)Cc2cc(F)c(F)cc2F)cc1 (stereo not given in full) | 6.9
4 | N[C@@H](CC(=O)N1N=CCC1C(=O)Nc1ccc(OCC(=O)O)cc1)Cc1cc(F)c(F)cc1F (stereo not given in full) | 59.3
5 | Nc1ccc(CNC(=O)C2CC=NN2C(=O)C[C@H](N)Cc2cc(F)c(F)cc2F)cc1 (stereo not given in full) | 4.5
